Assay results as given in article PMC8355244, “A fragment-based approach identifies an allosteric pocket that impacts malate dehydrogenase activity” (Communications Biology, 2021).
Where two headings read alike, the source gives them in different places.

Biological target: T1, WT PfMDH (Plasmodium falciparum, UniProt Q6VVP7)
T1 construct: The full-length WT PfMDH gene was cloned into pETM-13; made in house; host or cells: E. coli Rosetta 2 (DE3) pLysS
Assay: Activity screening of 4DT / 4-phenylthiazol-2-amine derivatives (oxidation of malate, absorbance at 340 nm)
Type: biochemical
Conditions: for inhibition at 500 µM: Dunnett's multiple comparisons test, read-out: Mean Diff. (positive control vs. compound); for Slope repl1 / Slope repl2: linear regression slope of absorbance 340 nm vs time; for Slope normalized repl1: slope relative to control = 1, replicate 1; for Slope normalized repl2: slope relative to control = 1, replicate 2
Experimental: The oxidation of malate to oxaloacetate was assayed spectrophotometrically in flat-bottomed Corning 96-well microplates in a total volume of 250.0 µl in 50 mM glycine buffer pH 10.2[24] with an additional 400 mM NaCl for protein stability. The increase of absorbance at 340 nm was recorded in kinetic mode using a Tecan Spark multimode microplate reader at 298 K. A mastermix of 50 mM NAD+ and 44 μM PfMDH was used for both the screening and kinetics experiments. The final concentration of protein and cofactor were […], respectively. Positive control groups were set (absence of compound) in the same plate as the treated group. The absorbance from the background noise was subtracted from the data and then a linear regression model was employed in order to get the line slope from the first 5 min of the reaction. The percentage of enzymatic activity has been calculated as described by Eq. (1)1 enzymeactivity(%)=slopetreated/slopepositivecontrol*100
1.3 µL of derivatives of 4-phenylthiazol-2-amine in 100% DMSO were mixed with 237.7 µL of a mastermix of WT PfMDH previously incubated with NAD+. The final compound concentration used in this screening was 500 µM in the presence of 0.5% (v/v) DMSO. The microplate was sealed with silver foil for 1-h incubation at 25–35 °C. Finally, reactions in both the samples and control wells were started upon the addition of 13.0 µL of 5 mM malate). At the end of the experiments, the reaction of the plate was spectrophotometrically assayed at 600 nm in order to identify turbidity due to the low solubility of the compound. All measurements were performed in duplicate.

[1] = 500 µM compound, Dunnett test details, positive control mean 100, n 2, read-out: Mean 2 (mean % enzymatic activity of treated group)
[2] = 500 µM compound, control 100%, replicate 1, read-out: % enzymatic activity repl1
[3] = 500 µM compound, control 100%, replicate 2, read-out: % enzymatic activity repl2

T1 sequence (Q6VVP7 entry or part of it): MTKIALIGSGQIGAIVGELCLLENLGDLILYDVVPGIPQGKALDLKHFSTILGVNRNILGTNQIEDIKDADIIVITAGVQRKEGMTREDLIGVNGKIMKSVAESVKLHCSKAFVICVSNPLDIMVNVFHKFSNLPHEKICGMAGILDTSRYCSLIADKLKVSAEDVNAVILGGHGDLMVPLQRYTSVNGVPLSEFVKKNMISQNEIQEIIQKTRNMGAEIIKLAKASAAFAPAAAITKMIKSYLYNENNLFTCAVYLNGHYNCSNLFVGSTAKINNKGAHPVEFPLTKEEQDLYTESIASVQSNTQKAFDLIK

Compound | remaining activity at 500 µM [1] [%] | inhibition at 500 µM (500 µM compound) [%] | remaining activity at 500 µM [2] [%] | remaining activity at 500 µM [3] [%] | Slope repl1 (500 µM compound, replicate 1) | Slope repl2 (500 µM compound, replicate 2) | Slope normalized repl1 (500 µM compound) | Slope normalized repl2 (500 µM compound) | remaining activity at 500 µM (read-out: enzyme activity) [%] | enzyme activity (500 µM compound, 0.5% DMSO, vs control, mean of n = 2)
Nc1nc(-c2ccc(Cl)c(Cl)c2)cs1 [7a] | 24 | 76.5 | 26 | 21 | 0.008711 | 0.007289 | 0.2615 | 0.208 | 23 | 
O=C(O)c1nc(-c2ccccc2)cs1 [4a] | 65 | 35 | 64 | 66 | 0.02124 | 0.02324 | 0.6376 | 0.6632 | 65 | 
Cc1c(CO)cnn1-c1ccccc1 [compound 6b] | 80 | 20 | 80 | 80 | 0.02662 | 0.02788 | 0.7992 | 0.7957 |  | no statistical difference with the control
